The values below come from patent publication US12173003B1, “Pyrrolo[3,2-C][2,6]naphthyridine-2-carboxylic acid compounds as CK2 inhibitors” (KING FAISAL UNIVERSITY, priority 2023, dated 2024).

For assay [1], the system named is HCT116 (colon). The assay can be described thus: In vitro cytotoxic activity MTT assay, HCT116. Format: cell-based. The following applies: Homo sapiens, HCT-116; HCT116 cells, exposed for 96 hours; read-out: IC50, 50% inhibition of cell proliferation, HCT116 (colon). Here is the method: (§1) Compounds 1-16 were screened for their in vitro cytotoxic activity utilizing a 3-(4,5-dimethyl-thiazol-2-yl)-2,5-diphenyltetrazolium bromide (MTT) assay against selected cancer human cell lines consisting of PC3 (prostate), HCT116 (colon), A375 (melanoma), H1299 (lung), MIAPaCa-2 (pancreas), HL60 (leukemia), MCF7 (breast), MDA-MB-231 (breast) (T. Mosmann, J. Immunol. Meth., 1983, 65, 55-63). The cells were cultured at 37° C. in RMPI1640 medium supplemented with 10% fetal bovine serum, 50 IU/mL penicillin, and 50 μg/mL streptomycin in a 5% CO2 incubator. All cells were sub-cultured 3 times/week by trypsinisation. Viable cells were seeded and allowed to adhere for 12 h before a test drug was added in 96-well plates at an initial density of 1.0×10^5 cells/mL. Tumour cell lines were separately exposed to various concentrations of the tested compounds followed by incubation at a temperature of 37° C. during 96 h inside a medium of fresh RMPI 1640. Cells were subsequently incubated at 37° C. using MTT at 0.5 mg/mL during 4 h. After removal of supernatant, formazan crystals were dissolved in isopropanol and the optical density was measured at 570 nm. CX-4945 was used as a positive control.
(In general: Tetrazolium dyes change colour on reduction, which living cells bring about.)

Assay [2] has as its system MCF7 (breast). The assay can be described thus: In vitro cytotoxic activity MTT assay, MCF7. The following applies: Homo sapiens; MCF7 cells, exposed for 96 hours; read-out: IC50, 50% inhibition of cell proliferation, MCF7 (breast). The assay is classed as cell-based. Here is the method: as §1
The target of assay [3] is T1, recombinant human CK2 (Homo sapiens, UniProt P68400).
T1 construct: purchased Millipore
T1 sequence (P68400 whole entry): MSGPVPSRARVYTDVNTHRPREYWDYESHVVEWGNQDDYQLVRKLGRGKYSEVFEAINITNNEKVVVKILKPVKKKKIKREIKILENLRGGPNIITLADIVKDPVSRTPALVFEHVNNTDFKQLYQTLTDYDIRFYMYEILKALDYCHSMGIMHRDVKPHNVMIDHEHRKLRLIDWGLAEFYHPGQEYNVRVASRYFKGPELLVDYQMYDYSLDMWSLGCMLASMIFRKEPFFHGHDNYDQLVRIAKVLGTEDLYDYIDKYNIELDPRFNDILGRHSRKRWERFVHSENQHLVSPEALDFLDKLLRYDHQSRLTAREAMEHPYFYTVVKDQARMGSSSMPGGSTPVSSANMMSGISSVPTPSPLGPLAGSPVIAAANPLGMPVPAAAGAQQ
T1 sequence (P67870 whole entry partner): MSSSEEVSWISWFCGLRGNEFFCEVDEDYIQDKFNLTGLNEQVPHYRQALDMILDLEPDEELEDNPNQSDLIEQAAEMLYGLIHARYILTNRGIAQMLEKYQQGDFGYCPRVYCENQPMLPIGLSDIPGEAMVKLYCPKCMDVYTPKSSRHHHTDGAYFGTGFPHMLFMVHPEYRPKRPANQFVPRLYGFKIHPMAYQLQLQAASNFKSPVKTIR
Put plainly: CK2 Kinase Assay (33P-ATP, filter plate). The assay is classed as biochemical. The following applies: final ATP concentration 15 μM, 10 min at 30° C.; read-out: protein kinase CK2 IC50. Here is the method: CK2 Kinase Assay was conducted using the protocol as described in Pierre F. et al; J. Med. Chem. 2011, 54, 635-654. The tested compounds in aqueous solution were added at a volume of 10 μL to a reaction mixture comprising 10 μL of assay dilution buffer (ADB; 20 mM MOPS, pH 7.2, 25 mM β-glycerol phosphate, 5 mM EGTA, 1 mM sodium orthovanadate, and 1 mM dithiothreitol), 10 μL of substrate peptide (RRRDDDSDDD, dissolved in ADB at a concentration of 1 mM), 10 μL of recombinant human CK2 (RRββ-holoenzyme, 25 ng dissolved in ADB; Millipore). Reactions were initiated by the addition of 10 μL of ATP solution (90% 75 mMMgCl2, 75 μM ATP (final ATP concentration:15 μM) dissolved in ADB; 10% [γ-33P] ATP (stock 1 mCi/100 μL; 3000 Ci/mmol (Perkin-Elmer) and maintained for 10 min at 30° C. The reactions were quenched with 100 μL of 0.75% phosphoric acid and then transferred to and filtered through a phosphor cellulose filter plate (Millipore). After washing each well five times with 0.75% phosphoric acid, the plate was dried under vacuum for 5 min and, following the addition of 15 μL of scintillation fluid to each well, the residual radioactivity was measured using a Wallac luminescence counter. The IC50 values were derived from eight concentrations of test inhibitors.

The test system of assay [4] is H1299 (lung). The assay can be described thus: In vitro cytotoxic activity MTT assay, H1299. The settings on record: Homo sapiens, NCI-H1299; H1299 cells, exposed for 96 hours; read-out: IC50, 50% inhibition of cell proliferation, H1299 (lung). The assay is classed as cell-based. Here is the method: as §1
The test system of assay [5] is MIAPaCa-2 (pancreas). Put plainly: In vitro cytotoxic activity MTT assay, MIAPaCa-2. The settings on record: Homo sapiens, MIA PaCa-2; MIAPaCa-2 cells, exposed for 96 hours; read-out: IC50, 50% inhibition of cell proliferation, MIAPaCa-2 (pancreas). The assay is classed as cell-based. Here is the method:
as §1

Assay [6] deals with PC3 (prostate). Put plainly: In vitro cytotoxic activity MTT assay, PC3. The following applies: Homo sapiens, PC-3; PC3 cells, exposed for 96 hours; read-out: IC50, 50% inhibition of cell proliferation, PC3 (prostate). Format: cell-based. Here is the method: as §1
Assay [7] relates to A375 (melanoma). The assay can be described thus: In vitro cytotoxic activity MTT assay, A375. The assay is classed as cell-based. The settings on record: Homo sapiens, A-375; A375 cells, exposed for 96 hours; read-out: IC50, 50% inhibition of cell proliferation, A375 (melanoma). Here is the method: as §1
Assay [8] deals with MDA-MB-231 (breast). The assay can be described thus: In vitro cytotoxic activity MTT assay, MDA-MB-231. Format: cell-based. The following applies: Homo sapiens; MDA-MB-231 cells, exposed for 96 hours; read-out: IC50, 50% inhibition of cell proliferation, MDA-MB-231 (breast). Here is the method: as §1
For assay [9], the system named is HL60 (leukemia). Put plainly: In vitro cytotoxic activity MTT assay, HL60. Format: cell-based. The settings on record: Homo sapiens, HL-60; HL60 cells, exposed for 96 hours; read-out: IC50, 50% inhibition of cell proliferation, HL60 (leukemia). Here is the method: as §1

The structures appear in SMILES notation. pIC50: −log10 of the molar value.

For `O=C(O)c1cc2nc(Nc3cccc(Cl)c3)c3ccncc3c2[nH]1` [Compound 1, 5-((3-chlorophenyl)amino)-1H-pyrrolo[3,2-c][2,6]naphthyridine-2-carboxylic acid], the pIC50 was 5.96 in [1]; 5.46 in assay [2]; 7.68 in assay [3]; 5.82 in assay [4]; 6.05 in assay [5]; 5.62 in assay [6]. The results for the pIC50 in assay [7], in assay [8] and in assay [9] were 5.59, 5.41 and 5.66, respectively.
